Assay results taken from patent US9161965B2, “Treatment for epilepsy” (NoNO Inc., priority 2008, dated 2015).
“Also recorded” adds a separate entry of the source.

Assays:
[1] = system: male Wistar rats with pilocarpine-induced status epilepticus; assay: Lateral ventricle size after SE, Nissl (cresyl violet) stained brain sections; assay type: in vivo, rat; details: treated at 3 hours post-SE (0.3 and 3 nmol/gm); 14 days post-SE
Method: Following pilocarpine and Tat-NR2B9c administration, and fixing of brain sections, as described above, every 6th section was used for Niss1 staining with cresyl violet. Sections were mounted and allowed to air dry on gelatin coated slides. The sections were rehydrated in an alcohol series at 100%, 95%, 70%, and 50% each for 5 minutes. The sections are then placed in water for 1 minute, followed by the Cresyl Violet Stain for 20 to 30 minutes. Sections are rinsed (30 seconds×2) in water, and dehydrated in an alcohol series at 50% for 5 minutes (or less), 70% for 5 minutes (or less), 95% for 5 minutes (or less), 100% for 5 minutes (or less), and 100% for 5 minutes (or less). Differentiation occurs maximally at the 50% and 70% alcohol gradients. Sections were cleared in xylene for 5 minutes and coverslipped with Permount, and viewed, e.g., under 40× magnification.

[2] = system: rats with status epilepticus induced by the RLDP procedure; assay: Elevated plus maze (exploratory behaviour) at 8 weeks post-SE; assay type: in vivo, rat; details: administered 3 hours post-SE, 5 minutes on maze
Method: (§1) We investigated possible behavioral effects of 60 min SE induced with the RLDP procedure. Visual-spatial memory was investigated with the Morris water maze (MWM) at 8 weeks post-SE to detect chronic cognitive impairment. The MWM is of particular usefulness with studies involving therapeutic agents, since the severity of neurodegeneration in the anterior CA1 region is strongly correlated with performance (escape latency) (Clasussen et al, 2005). […] All groups contained at least 6 animals.
The elevated plus maze is used to investigate exploratory behaviour. At 8 weeks post-SE, animals were placed on the elevated plus maze for 5 minutes and videotaped. […] Furthermore, SE animals had reduced frequency of lookouts into the open arm and rearing episodes when compared to controls (FIGS. 12 E & F).

[3] = system: male Wistar rats with pilocarpine-induced status epilepticus; assay: Neuron loss (NeuN-positive cell counts) after status epilepticus in the lithium-pilocarpine rat model
Method: Male Wistar rats between 350 to 400 grams were pretreated with lithium chloride (ip; 3 mEq/kg) 17 to 24 hours before systemic injection of the chemoconvulsant pilocarpine. Pilocarpine (ip; 10 mg/kg) was administered every 30 minutes until onset of status epilepticus (SE), which was defined as a loss of consciousness and continuous overt seizure activity. […] Rats generally developed SE shortly thereafter. […] SE was terminated at 1, 3 and 5 hours following onset of SE with diazepam (ip; 4 mg/kg).
Animals were anaesthetized with ketamine and Romptum, and transcardially perfused with paraformaldehyde (PFA; 4% in 0.1M phosphate buffer, pH 7.4) 2 weeks after SE induction. Brains were removed, post-fixed overnight in PFA, and then equilibrated in 30% sucrose in PBS. Brains were then frozen at −35° C. in methylbutane and stored until further use at −70° C. in scintillation vials containing frozen 30% sucrose in PBS to prevent freezer drying. The brains were coronally sectioned at 40 μm using a freezing microtome and stored at −20° C. in 24-well plates containing antifreeze solution (15% glucose, 30% ethylene glycol, 50 mMol phosphate buffer; pH 7.4).
For each animal, neuronal cells were quantified by immunohistochemical staining with NeuN, a neuronal cell specific antibody.

[4] = system: rats with status epilepticus induced by the RLDP procedure; assay: Morris water maze (visual-spatial memory) at 8 weeks post-SE; assay type: in vivo, rat; details: administered 3 hours post-SE
Method: as §1
In our study animals were trained on the MWM task for 14 consecutive days, with 6 trials completed daily. […] No SE animals, however, learned the task within 6 consecutive days, with no further improvement in escape latency thereafter.

[5] = system: animal models of stroke; details: applied before or 1 hour after a stroke; cited from earlier work
[6] = stroke indication; cited from earlier work
[7] = target: N-type calcium channels (Homo sapiens, UniProt Q00975); details: cited from earlier work
Chain of N-type calcium channels (Q00975 whole entry): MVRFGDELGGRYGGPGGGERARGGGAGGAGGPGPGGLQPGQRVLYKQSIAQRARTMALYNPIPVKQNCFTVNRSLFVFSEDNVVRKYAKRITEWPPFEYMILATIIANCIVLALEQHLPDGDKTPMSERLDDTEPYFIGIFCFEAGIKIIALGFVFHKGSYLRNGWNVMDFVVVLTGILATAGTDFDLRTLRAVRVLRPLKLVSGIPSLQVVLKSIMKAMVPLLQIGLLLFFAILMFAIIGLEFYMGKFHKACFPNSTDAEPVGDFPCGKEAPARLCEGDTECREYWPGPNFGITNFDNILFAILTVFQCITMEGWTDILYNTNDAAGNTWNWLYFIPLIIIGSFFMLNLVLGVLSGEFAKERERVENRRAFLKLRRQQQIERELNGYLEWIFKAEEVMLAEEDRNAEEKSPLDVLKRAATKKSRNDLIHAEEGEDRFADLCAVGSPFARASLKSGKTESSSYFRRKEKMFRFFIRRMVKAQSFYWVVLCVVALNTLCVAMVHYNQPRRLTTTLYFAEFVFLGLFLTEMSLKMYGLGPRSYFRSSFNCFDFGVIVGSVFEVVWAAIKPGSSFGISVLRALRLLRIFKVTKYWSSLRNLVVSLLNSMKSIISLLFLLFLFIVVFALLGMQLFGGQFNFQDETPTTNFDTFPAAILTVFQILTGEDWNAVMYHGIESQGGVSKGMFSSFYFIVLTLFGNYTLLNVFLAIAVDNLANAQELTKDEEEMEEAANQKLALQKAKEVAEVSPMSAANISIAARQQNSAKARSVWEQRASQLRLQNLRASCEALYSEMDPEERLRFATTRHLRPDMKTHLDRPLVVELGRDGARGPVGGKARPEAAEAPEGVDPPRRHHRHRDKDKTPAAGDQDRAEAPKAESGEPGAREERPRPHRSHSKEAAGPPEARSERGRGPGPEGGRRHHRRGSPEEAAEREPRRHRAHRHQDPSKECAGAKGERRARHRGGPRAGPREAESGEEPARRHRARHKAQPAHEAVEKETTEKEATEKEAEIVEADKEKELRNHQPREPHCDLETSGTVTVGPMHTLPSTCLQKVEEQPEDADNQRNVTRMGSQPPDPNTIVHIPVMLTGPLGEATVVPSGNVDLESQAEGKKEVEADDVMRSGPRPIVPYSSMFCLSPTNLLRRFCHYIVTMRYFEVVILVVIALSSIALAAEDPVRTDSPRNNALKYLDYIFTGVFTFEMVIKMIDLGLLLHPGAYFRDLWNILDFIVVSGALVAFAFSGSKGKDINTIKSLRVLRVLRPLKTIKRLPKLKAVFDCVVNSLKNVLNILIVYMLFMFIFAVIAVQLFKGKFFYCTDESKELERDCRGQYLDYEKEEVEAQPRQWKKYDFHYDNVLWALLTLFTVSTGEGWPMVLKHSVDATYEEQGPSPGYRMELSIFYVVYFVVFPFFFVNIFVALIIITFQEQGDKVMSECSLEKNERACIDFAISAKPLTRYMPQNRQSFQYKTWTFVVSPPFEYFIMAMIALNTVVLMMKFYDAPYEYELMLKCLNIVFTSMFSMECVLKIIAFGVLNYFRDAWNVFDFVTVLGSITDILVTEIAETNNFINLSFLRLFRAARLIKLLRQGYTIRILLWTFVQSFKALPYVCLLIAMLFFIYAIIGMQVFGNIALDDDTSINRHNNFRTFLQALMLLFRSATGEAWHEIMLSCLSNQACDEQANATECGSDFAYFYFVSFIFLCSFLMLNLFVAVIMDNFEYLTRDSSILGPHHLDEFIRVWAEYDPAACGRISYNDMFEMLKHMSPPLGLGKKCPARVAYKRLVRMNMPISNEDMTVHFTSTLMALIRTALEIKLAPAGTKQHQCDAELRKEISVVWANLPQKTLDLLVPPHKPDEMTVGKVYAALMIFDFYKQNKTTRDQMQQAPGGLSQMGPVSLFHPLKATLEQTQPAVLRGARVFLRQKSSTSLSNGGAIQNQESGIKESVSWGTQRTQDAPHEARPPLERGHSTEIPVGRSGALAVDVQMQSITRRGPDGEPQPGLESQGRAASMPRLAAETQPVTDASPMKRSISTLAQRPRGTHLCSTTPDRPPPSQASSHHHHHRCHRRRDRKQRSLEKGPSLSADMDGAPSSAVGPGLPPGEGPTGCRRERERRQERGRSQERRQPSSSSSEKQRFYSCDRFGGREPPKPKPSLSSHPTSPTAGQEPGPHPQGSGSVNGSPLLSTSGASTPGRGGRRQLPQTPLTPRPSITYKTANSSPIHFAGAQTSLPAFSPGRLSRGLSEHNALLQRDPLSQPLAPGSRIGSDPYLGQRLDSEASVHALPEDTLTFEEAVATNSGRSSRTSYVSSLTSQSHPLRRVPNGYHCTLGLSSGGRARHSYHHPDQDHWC

Sequence	Size of lateral ventricles following SE [1]	Effects of SE on exploratory behaviour / cognitive impairment, elevated plus maze [2]	Neuroprotection / neuron loss (NeuN-positive cells), peptide administered during status epilepticus ([3]; administered 10 minutes following initiation of SE, 0.3, 3 and 9 nmol/gm, 7 days after SE)	NeuN-immunostaining of coronal sections of the dorsal hippocampus (histochemical visualization) ([3]; administered 3 hours following the insult, 2.5x and 40x magnification)	Neuroprotection / neuron loss (NeuN-positive cells), anterior (dorsal) CA1 region of the hippocampus ([3]; administered via femoral vein 3 hours after termination of SE, 0.3 or 3 nmol/gm, 14 days recovery)	Number of surviving neuronal cells near the subicular border of the CA1 region ([3]; compared to saline-treated animals)	Neuroprotection in the CA4 region ([3]; rat, in vivo)	Escape latency performance, Morris water maze [4]	Neuroprotection in animal models of stroke [5]	Adverse events / side effects in phase I clinical trials [6]	Binding to and inhibition of N-type calcium channels [7]
YGRKKRRQRRRKLSSIESDV (synthetic chimeric PDZ-binding ligand (PL) motif active peptide linked to HIV TAT internalization peptide, Tat-NR2B9c-(SDV))	reduced them to the size found in rats who had not been given pilocarpine; also recorded: dramatic reduction of lateral ventricle size; also recorded: noticeably smaller lateral ventricles	decreased these effects of SE on exploratory behavior; also recorded: reduces the cognitive impairment caused by status epilepticus	did not decrease neuron loss; also recorded: comparable to neuron loss in untreated rats; also recorded: not during	increased NeuN-immunostaining; also recorded: This effect was reversed	rescued neuron loss in a dose-dependent manner; also recorded: especially protective; also recorded: conferred neuroprotection; also recorded: neuroprotective in the anterior CA1 region of the hippocampus; also recorded: neuroprotective when administered after; also recorded: dose-dependent neuroprotection	increased the number of surviving neuronal cells	confers neuroprotection	improves escape latency performance, especially during the initial 5 days of acquisition learning	highly neuroprotective	without serious adverse events	
YGRKKRRQRRR [standard tat peptide]											binds to and inhibits N-type calcium channels
